Reference: patent publication US20120016010A1, “RNA Interference Mediated Inhibition of BTB and CNC Homology 1, Basic Leucine Zipper Transcription Factor 1 (BACH1) Gene Expression Using Short Interfering Nucleic Acid (siNA)” (Merck Sharp & Dohme Corp, priority 2009, published 2012)
[invAb] = inverted abasic unit; d = 2'-deoxy (DNA); m = 2'-O-methyl; r = 2'-OH (RNA); f = 2'-fluoro

Key:
Bach1 mRNA [1] = assay: Initial screen: Bach1 mRNA knock-down in human A549 cells (96-well transfection, quantitative RT-PCR); assay type: cell-based; conditions: Bach1 mRNA, 10 nM siNA, human A549 cells, n = 2, mean ± S.D., normalized to GAPDH and non-targeting control, 24 hrs post-transfection
Description: (§1) All cells were obtained from ATCC (Manassas, Va.) unless otherwise indicated. Cells were grown and transfected under standard conditions, which are detailed below for each cell line.
(§2) Cells were plated in all wells of a tissue-culture treated, 96-well plate at a final count of 5000 cells/well in 100 μL of the appropriate culture media. The cells were cultured for 24 hours after plating at 37° C. in the presence of 5% CO2.
(§3) After 24 hours, complexes containing siNA and RNAiMax were created as follows: A solution of RNAiMax diluted 33-fold in OPTI-MEM was prepared. […] After incubation of RNAiMax/OPTI-MEM solution at room temperature for 5 min, an equal volume of the siNA solution and the RNAiMax solution were added together for each of the siNAs.
(§4) This solution was incubated at room temperature for 20 minutes. After incubation, 20 uL of the solution was added to each of the relevant wells. The final concentration of siNA in each well was 10 nM and the final volume of RNAiMax in each well was 0.3 ul. […]
(§5) Briefly, a 60 uL (1 plate) or 110 uL (2 plates) of the Lysis Solution with DNase I was dispensed into each well of the Lysis Buffer Plate (twin.tec full skirt plate). The lysis buffer and stop plates were stored at 4° C. until the cells were washed.
(§6) The plate was spun at 1100 rpm for 5 minutes. The culture medium was aspirated and discarded from the wells of the culture plate. The lysis was performed automatically using a BioMek FX instrument and method. After the Biomek method was completed, the lysis plate was incubated for 2 min at room temperature. The lysis plate can be stored for 2 hours at 4° C., or at −20° C. or −80° C. for two months.
(§7) Each well of the reverse transcription plate required 10 uL of 2× reverse transcriptase Buffer, 1 uL of 20× reverse transcription enzyme and 2 uL of nuclease-free water. The reverse transcription master mix was prepared by mixing 2× reverse transcription buffer, 20× reverse transcription enzyme mix, and nuclease-free water. 13 uL of the reverse transcription master mix was dispensed into each well of the reverse transcription plate (semi-skirted). A separate reverse transcription plate was prepared for each cell plate. The plate was loaded onto a Biomek NX or Biomek FX Dual −96 and the Biomek method was run. The program is programmed to automatically added 7 uL of lysate from the cell lysis procedure described above into each well of the reverse transcription plate. The plate is sealed and spun on a centrifuge (1000 rpm for 30 seconds) to settle the contents to the bottom of the reverse transcription plate. The plate is placed in a thermocycler at 37° C. for 60 min, 95° C. for 5 min, and 4° C. until the plate is removed from the thermocycler. Upon removal, if not used immediately, the plate was frozen at −20° C.
(§8) A series of probes and primers were used to detect the various mRNA transcripts of the genes of Bach1, HMOX-1, and GAPDH in mouse and human cell lines. The assays were performed on an ABI 7900 instrument, according to the manufacturer's instructions. […] The PCR reactions were carried out at 50° C. for 2 min, 95° C. for 20 min followed by 40 cycles at 95° C. for 15 secs and 60° C. for 1 min
(§9) Within each experiment, the […] was set in the exponential phase of the amplification curve, and based on the intersection point of the baselines with the amplification curve, a Ct value was assigned by the instrument.
(§10) The expression level of the gene of interest and % knock-down was calculated using Comparative Ct method:
(§11) ΔCt=ΔCt(Target siRNA)−ΔCt(NTC)
(§12) Relative expression level=2^−ΔΔCt
(§13) The non-targeting control siNA was, unless otherwise indicated, chosen as the value against which to calculate the % knock-down, because it is the most relevant control.

Bach1 mRNA [2] = assay: Initial screen: Bach1 mRNA knock-down in mouse NIH 3T3 cells (96-well transfection, quantitative RT-PCR); assay type: cell-based; conditions: mouse NIH3T3 cells, n = 2, 24 hrs post-transfection, protocol 10 nM siNA
Description: as §1, §2, §3, §4, §5, §6, §7, §8, §9, §10, §11, §12, §13

Substance	% KD (Bach1 mRNA [1])	% KD (Bach1 mRNA [2]) [%]
29948-DC: Bach1 siNA duplex, target site 1285; sense B GcGAGAAGuGGcAGAAcAc TTB (SEQ 45); antisense GUGuucuGccACuuCuCGcUU (SEQ 46) (sense GCGAGAAGUGGCAGAACACTT; antisense GUGUUCUGCCACUUCUCGCUU; sense: DNA at AGT, 2'-fluoro at CU, [invAb] at 5' end, 3' end, backbone not given here; antisense: sugars from the 5' end rrrffffmffmmffmfmmfmm, backbone not given here)	51.9 ± 3^ %	−16.3 ± 12.6
29949-DC: Bach1 siNA duplex, target site 664; sense B GuGuAAAcuccGcAGGuAu TTB (SEQ 47); antisense AUAccuGcGGAGuuuAcAcUU (SEQ 48) (sense GUGUAAACUCCGCAGGUAUTT; antisense AUACCUGCGGAGUUUACACUU; sense: DNA at AGT, 2'-fluoro at CU, [invAb] at 5' end, 3' end, backbone not given here; antisense: sugars from the 5' end rrrfffmfmmmmfffmfmfmm, backbone not given here)	25 ± 1.4%	−7.1 ± 5.2
29950-DC: Bach1 siNA duplex, target site 470; sense B GAGGAAuccuGcuuucAGu TTB (SEQ 49); antisense ACUGAAAGcAGGAuuccucUU (SEQ 50) (sense GAGGAAUCCUGCUUUCAGUTT; antisense ACUGAAAGCAGGAUUCCUCUU; sense: DNA at AGT, 2'-fluoro at CU, [invAb] at 5' end, 3' end, backbone not given here; antisense: sugars from the 5' end rrrmmmmmfmmmmffffffmm, backbone not given here)	90.6 ± 1.7%	42.5 ± 6.4
29951-DC: Bach1 siNA duplex, target site 1162; sense B GccuuuGucAGGuAcAGAc TTB (SEQ 51); antisense GUCuGuAccuGAcAAAGGcUU (SEQ 52) (sense GCCUUUGUCAGGUACAGACTT; antisense GUCUGUACCUGACAAAGGCUU; sense: DNA at AGT, 2'-fluoro at CU, [invAb] at 5' end, 3' end, backbone not given here; antisense: sugars from the 5' end rrrfmfmfffmmfmmmmmfmm, backbone not given here)	39 ± 11.2%	−22 ± 13.2
29952-DC: Bach1 siNA duplex, target site 732; sense B cAuAuGAGuccAuGuGcuu TTB (SEQ 53); antisense AAGcAcAuGGAcucAuAuGUU (SEQ 54) (sense CAUAUGAGUCCAUGUGCUUTT; antisense AAGCACAUGGACUCAUAUGUU; sense: DNA at AGT, 2'-fluoro at CU, [invAb] at 5' end, 3' end, backbone not given here; antisense: sugars from the 5' end rrrfmfmfmmmfffmfmfmmm, backbone not given here)	75 ± 0.9%	−15.7 ± 1.8
29953-DC: Bach1 siNA duplex, target site 1096; sense B cAcAuAuGAccAAuAuGGu TTB (SEQ 55); antisense ACCAuAuuGGucAuAuGuGUU (SEQ 56) (sense CACAUAUGACCAAUAUGGUTT; antisense ACCAUAUUGGUCAUAUGUGUU; sense: DNA at AGT, 2'-fluoro at CU, [invAb] at 5' end, 3' end, backbone not given here; antisense: sugars from the 5' end rrrmfmffmmffmfmfmfmmm, backbone not given here)	24 ± 14.1%	−11 ± 3.3
29954-DC: Bach1 siNA duplex, target site 1389; sense B cAGAAcAGAucucAcAGAA TTB (SEQ 57); antisense UCCuGuGAGAucuGuucuGUU (SEQ 58) (sense CAGAACAGAUCUCACAGAATT; antisense UCCUGUGAGAUCUGUUCUGUU; sense: DNA at AGT, 2'-fluoro at CU, [invAb] at 5' end, 3' end, backbone not given here; antisense: sugars from the 5' end rrrfmfmmmmfffmffffmmm, backbone not given here)	63.4 ± 0.9%	−10.2 ± 10.1
29955-DC: Bach1 siNA duplex, target site 737; sense B GAGuccAuGuGcuuAGAGA TTB (SEQ 59); antisense UCUcuAAGcAcAuGGAcucUU (SEQ 60) (sense GAGUCCAUGUGCUUAGAGATT; antisense UCUCUAAGCACAUGGACUCUU; sense: sugars from the 5' end rrrfffdfdfdfffddddddd, [invAb] at 5' end, 3' end, backbone not given here; antisense: sugars from the 5' end rrrffmmmfmfmfmmmfffmm, backbone not given here)	14.6 ± 0.2%	−12.2 ± 4.3
29958-DC: Bach1 siNA duplex, target site 851; sense B GucAAAGAcAuucAuGcuu TTB (SEQ 65); antisense AAGcAuGAAuGucuuuGAcUU (SEQ 66) (sense GUCAAAGACAUUCAUGCUUTT; antisense AAGCAUGAAUGUCUUUGACUU; sense: DNA at AGT, 2'-fluoro at CU, [invAb] at 5' end, 3' end, backbone not given here; antisense: sugars from the 5' end rrrfmfmmmfmfffffmmfmm, backbone not given here)	75.7 ± 8.6%	−50.4 ± 6.8
29959-DC: Bach1 siNA duplex, target site 1415; sense B GAGuGuccGuGGuuAGGuA TTB (SEQ 67); antisense UACcuAAccAcGGAcAcuCUU (SEQ 68) (sense GAGUGUCCGUGGUUAGGUATT; antisense UACCUAACCACGGACACUCUU; sense: DNA at AGT, 2'-fluoro at CU, [invAb] at 5' end, 3' end, backbone not given here; antisense: chemistry not given here; in key)	68 ± 14.9%	−9.9 ± 3.8
29960-DC: Bach1 siNA duplex, target site 1377; sense B ccAAAGAuGGcucAGAAcA TTB (SEQ 69); antisense UGUucuGAGccAucuuuGGUU (SEQ 70) (sense CCAAAGAUGGCUCAGAACATT; antisense UGUUCUGAGCCAUCUUUGGUU; sense: DNA at AGT, 2'-fluoro at CU, [invAb] at 5' end, 3' end, backbone not given here; antisense: sugars from the 5' end rrrfffmmmffmfffffmmmm, backbone not given here)	34 ± 3%	5.9 ± 6.4
29962-DC: Bach1 siNA duplex, target site 1240; sense B cAGGGAAGAuAGuAGuGuu TTB (SEQ 73); antisense AACAcuAcuAucuucccuGUU (SEQ 74) (sense CAGGGAAGAUAGUAGUGUUTT; antisense AACACUACUAUCUUCCCUGUU; sense: DNA at AGT, 2'-fluoro at CU, [invAb] at 5' end, 3' end, backbone not given here; antisense: sugars from the 5' end rrrmffmffmffffffffmmm, backbone not given here)	88 ± 0.7%	21.3 ± 2.2
